Assay results as given in ChEMBL document CHEMBL4130574, “Discovery of novel 2,4-diarylaminopyrimidine analogues as ALK and ROS1 dual inhibitors to overcome crizotinib-resistant mutants including G1202R” (Eur J Med Chem, 2018).
pIC50: −log10 of the molar value.

How the values were obtained:
[1] = Selectivity ratio of IC50 for human HCC78 cells harboring SLC34A2-ROS1 to IC50 for human KARPAS299 cells harboring NPM-ALK; format: functional
[2] = biological target: Proto-oncogene tyrosine-protein kinase ROS (Homo sapiens, UniProt P08922); assay: Inhibition of recombinant human N-terminal GST-tagged ROS1 cytoplasmic domain (1883 to 2347 residues) expressed in baculovirus expression system using peptide substrate after 1 hr by mobility shift assay
[3] = tested on: NCI-H460; assay: cells; details: Homo sapiens, NCI-H460, 72 h
Description: Antiproliferative activity against human NCI-H460 cells after 72 hrs by MTT assay

[4] = biological target: ALK tyrosine kinase receptor (Homo sapiens, UniProt Q9UM73)
Description: Inhibition of recombinant human N-terminal GST-tagged ALK cytoplasmic domain (1058 to 1620 residues) expressed in baculovirus expression system using peptide substrate after 1 hr by mobility shift assay

[5] = tested on: KARPAS-299; assay: Antiproliferative activity against human KARPAS299 cells harboring NPM-ALK after 72 hrs by MTT assay; format: functional, cell-based; details: KARPAS-299, 72 h
[6] = tested on: NCI-H2228; assay: cells; details: Homo sapiens, NCI-H2228, 72 h
Description: Antiproliferative activity against human NCI-H2228 cells harboring EML4-ALK after 72 hrs by MTT assay

[7] = tested on: A549; assay: cells; details: Homo sapiens, A549, 72 h
Description: Antiproliferative activity against human A549 cells harboring EGFR after 72 hrs by MTT assay

[8] = Selectivity ratio of IC50 for human HCC78 cells harboring SLC34A2-ROS1 to IC50 for human NCI-H2228 cells harboring EML4-ALK; format: functional
[9] = tested on: HCC78; assay: Antiproliferative activity against human HCC78 cells harboring SLC34A2-ROS1 after 72 hrs by MTT assay; format: functional, cell-based; details: HCC78, 72 h
[10] = biological target: Hepatocyte growth factor receptor (Homo sapiens, UniProt P08581); assay: Inhibition of recombinant human N-terminal GST-tagged c-MET cytoplasmic domain (956 to 1390 residues) expressed in baculovirus expression system using peptide substrate after 1 hr by mobility shift assay
[11] = biological target: Epidermal growth factor receptor (Homo sapiens, UniProt P00533)
Chain of Epidermal growth factor receptor (P00533 whole entry): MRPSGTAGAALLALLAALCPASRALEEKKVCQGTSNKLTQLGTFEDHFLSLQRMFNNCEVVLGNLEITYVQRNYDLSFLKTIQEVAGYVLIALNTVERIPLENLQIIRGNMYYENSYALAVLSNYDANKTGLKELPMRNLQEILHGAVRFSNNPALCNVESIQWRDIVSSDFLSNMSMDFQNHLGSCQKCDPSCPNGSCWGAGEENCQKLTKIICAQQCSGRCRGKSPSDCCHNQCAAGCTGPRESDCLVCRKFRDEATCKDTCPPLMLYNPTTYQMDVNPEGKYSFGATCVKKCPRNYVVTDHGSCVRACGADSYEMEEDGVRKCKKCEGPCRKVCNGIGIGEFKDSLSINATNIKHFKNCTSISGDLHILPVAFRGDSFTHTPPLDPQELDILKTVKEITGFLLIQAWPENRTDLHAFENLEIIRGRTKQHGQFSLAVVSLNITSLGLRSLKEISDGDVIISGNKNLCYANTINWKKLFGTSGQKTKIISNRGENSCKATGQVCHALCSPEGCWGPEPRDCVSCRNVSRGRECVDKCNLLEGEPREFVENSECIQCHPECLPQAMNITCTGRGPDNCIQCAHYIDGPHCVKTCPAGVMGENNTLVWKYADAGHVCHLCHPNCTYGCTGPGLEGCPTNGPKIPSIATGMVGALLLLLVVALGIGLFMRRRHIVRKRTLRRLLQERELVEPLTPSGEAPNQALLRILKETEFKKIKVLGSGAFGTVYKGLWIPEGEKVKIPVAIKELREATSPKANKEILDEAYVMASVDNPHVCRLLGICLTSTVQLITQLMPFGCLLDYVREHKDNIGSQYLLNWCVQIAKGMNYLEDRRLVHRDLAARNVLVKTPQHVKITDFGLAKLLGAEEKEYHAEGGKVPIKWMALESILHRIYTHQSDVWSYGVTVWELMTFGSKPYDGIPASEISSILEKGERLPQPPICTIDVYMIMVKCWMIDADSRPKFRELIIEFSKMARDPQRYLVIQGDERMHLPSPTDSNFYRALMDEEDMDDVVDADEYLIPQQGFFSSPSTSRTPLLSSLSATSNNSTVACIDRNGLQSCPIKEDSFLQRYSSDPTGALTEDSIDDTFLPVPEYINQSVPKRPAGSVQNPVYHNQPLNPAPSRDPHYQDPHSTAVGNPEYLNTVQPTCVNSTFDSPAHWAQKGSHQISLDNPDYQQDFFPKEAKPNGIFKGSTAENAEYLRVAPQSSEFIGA
Description: Inhibition of recombinant human N-terminal GST-tagged EGFR cytoplasmic domain (669 to 1210 residues) expressed in baculovirus expression system using peptide substrate after 1 hr by mobility shift assay

Chain of ALK tyrosine kinase receptor (Q9UM73 whole entry): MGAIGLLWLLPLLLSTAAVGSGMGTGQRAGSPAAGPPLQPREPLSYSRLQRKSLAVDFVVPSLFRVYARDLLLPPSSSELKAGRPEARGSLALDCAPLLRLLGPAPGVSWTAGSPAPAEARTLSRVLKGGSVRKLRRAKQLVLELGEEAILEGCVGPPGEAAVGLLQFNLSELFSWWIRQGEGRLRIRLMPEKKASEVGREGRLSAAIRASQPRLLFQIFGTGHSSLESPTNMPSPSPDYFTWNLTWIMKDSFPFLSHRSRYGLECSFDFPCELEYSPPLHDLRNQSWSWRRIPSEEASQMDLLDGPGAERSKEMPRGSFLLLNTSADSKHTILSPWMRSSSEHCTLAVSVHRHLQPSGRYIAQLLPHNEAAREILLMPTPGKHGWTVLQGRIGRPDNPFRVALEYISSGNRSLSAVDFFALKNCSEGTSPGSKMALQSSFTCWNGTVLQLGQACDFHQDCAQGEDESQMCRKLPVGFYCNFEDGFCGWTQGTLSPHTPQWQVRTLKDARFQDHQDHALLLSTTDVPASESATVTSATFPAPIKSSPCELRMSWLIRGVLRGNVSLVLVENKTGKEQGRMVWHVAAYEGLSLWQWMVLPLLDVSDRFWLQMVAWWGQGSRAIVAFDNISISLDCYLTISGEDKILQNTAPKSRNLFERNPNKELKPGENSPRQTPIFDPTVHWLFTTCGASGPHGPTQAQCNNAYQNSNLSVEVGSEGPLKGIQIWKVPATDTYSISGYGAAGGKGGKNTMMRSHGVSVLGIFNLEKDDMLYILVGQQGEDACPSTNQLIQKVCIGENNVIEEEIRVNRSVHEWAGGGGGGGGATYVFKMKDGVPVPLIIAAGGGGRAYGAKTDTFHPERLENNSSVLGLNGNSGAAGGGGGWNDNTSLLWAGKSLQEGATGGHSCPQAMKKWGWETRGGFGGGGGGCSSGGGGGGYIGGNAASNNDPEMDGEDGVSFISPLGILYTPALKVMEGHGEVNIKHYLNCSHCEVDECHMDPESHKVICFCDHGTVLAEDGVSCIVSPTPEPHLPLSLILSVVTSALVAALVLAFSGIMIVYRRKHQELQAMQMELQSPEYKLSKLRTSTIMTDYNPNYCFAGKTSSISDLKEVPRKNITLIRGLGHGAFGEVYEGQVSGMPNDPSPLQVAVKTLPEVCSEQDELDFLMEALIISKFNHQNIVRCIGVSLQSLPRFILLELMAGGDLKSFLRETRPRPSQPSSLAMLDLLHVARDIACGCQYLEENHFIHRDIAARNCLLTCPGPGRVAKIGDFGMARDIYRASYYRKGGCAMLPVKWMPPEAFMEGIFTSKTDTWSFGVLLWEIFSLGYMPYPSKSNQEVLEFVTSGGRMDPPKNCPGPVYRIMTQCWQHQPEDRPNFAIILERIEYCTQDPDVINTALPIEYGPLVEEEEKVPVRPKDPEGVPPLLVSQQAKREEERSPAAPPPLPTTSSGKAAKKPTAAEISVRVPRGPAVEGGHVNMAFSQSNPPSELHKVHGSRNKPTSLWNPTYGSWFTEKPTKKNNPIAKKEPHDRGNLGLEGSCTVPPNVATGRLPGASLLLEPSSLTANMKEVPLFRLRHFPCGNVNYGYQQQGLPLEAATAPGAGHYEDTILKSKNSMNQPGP
Chain of Proto-oncogene tyrosine-protein kinase ROS (P08922 whole entry, the tested form may be a part): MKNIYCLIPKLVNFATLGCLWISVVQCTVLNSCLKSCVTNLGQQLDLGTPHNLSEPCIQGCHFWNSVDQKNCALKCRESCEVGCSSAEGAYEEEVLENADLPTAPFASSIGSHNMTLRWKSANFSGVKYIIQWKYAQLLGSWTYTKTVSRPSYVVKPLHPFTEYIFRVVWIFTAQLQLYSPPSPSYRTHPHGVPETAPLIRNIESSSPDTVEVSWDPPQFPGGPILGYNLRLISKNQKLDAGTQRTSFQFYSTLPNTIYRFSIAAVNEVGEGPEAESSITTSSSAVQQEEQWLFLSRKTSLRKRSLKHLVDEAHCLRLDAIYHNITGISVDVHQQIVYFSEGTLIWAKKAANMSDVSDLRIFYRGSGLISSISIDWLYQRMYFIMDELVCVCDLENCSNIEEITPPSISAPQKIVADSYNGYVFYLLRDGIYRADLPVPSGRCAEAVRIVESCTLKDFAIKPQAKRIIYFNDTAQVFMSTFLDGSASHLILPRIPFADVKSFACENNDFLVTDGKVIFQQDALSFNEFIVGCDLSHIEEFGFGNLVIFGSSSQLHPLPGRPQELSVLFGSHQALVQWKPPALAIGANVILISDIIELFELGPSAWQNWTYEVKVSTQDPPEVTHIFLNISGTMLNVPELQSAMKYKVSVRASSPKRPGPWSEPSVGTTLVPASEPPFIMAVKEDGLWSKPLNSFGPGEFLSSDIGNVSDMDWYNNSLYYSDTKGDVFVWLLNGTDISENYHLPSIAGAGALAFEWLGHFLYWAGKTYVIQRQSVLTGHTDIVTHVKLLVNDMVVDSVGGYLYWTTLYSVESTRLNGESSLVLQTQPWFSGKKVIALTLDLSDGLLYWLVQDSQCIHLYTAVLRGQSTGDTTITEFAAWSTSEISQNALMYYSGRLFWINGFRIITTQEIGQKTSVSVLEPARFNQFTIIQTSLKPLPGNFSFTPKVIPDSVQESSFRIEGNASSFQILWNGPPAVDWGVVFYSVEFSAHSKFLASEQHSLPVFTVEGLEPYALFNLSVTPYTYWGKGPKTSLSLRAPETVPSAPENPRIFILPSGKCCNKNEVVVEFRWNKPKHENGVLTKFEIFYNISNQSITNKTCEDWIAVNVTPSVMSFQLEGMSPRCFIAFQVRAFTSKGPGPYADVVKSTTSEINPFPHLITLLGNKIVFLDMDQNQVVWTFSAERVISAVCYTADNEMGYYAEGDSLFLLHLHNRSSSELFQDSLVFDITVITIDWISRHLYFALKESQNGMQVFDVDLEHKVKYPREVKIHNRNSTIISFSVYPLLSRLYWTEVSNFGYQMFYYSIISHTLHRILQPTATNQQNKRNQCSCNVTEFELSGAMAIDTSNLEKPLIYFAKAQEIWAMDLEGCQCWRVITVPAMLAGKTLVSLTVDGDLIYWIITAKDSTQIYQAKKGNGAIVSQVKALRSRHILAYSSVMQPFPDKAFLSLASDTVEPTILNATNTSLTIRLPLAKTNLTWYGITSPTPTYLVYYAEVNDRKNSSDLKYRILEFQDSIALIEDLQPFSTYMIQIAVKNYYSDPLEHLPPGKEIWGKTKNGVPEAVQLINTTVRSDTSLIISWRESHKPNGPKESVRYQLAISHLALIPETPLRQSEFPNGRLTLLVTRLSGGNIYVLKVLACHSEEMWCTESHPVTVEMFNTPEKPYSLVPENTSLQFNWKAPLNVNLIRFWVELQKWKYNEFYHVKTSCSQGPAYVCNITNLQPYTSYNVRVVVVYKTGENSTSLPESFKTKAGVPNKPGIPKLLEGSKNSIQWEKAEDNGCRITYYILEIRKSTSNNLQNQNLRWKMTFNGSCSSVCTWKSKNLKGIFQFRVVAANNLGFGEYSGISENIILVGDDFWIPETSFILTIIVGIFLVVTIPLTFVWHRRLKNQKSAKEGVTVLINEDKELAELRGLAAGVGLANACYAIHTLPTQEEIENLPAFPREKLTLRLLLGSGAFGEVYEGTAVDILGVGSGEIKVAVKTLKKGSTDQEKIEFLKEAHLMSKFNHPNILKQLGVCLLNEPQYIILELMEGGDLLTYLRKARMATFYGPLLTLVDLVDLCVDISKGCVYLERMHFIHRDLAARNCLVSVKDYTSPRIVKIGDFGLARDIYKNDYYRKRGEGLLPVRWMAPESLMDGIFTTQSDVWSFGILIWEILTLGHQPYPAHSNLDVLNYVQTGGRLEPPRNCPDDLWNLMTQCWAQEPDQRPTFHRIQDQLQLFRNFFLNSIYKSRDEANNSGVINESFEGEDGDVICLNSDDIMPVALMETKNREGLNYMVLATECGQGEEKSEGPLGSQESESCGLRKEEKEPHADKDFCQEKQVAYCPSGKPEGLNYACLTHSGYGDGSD

SMILES	Ratio IC50 [1]	pIC50 [2]	pIC50 [3]	pIC50 [4]	pIC50 [5]	pIC50 [6]	pIC50 [7]	Ratio IC50 [8]	pIC50 [9]	pIC50 [10]	pIC50 [11]
COc1cc(-c2nc(CN3CCN(C)CC3)cs2)ccc1Nc1ncc(Cl)c(Nc2ccccc2S(=O)(=O)C(C)C)n1	2.3	8.01	6.06	8.64	7.66	7.01	< 6.00	2.3	7.03	6.09	< 6.00
COc1cc(-c2nc(CN3CCC(C)CC3)cs2)ccc1Nc1ncc(Cl)c(Nc2ccccc2S(=O)(=O)C(C)C)n1		8.07	< 6.00	8.52	6.72	6.64	6.10		6.42	6.01	< 6.00
COc1cc(-c2nc(CN3CCCC3)cs2)ccc1Nc1ncc(Cl)c(Nc2ccccc2S(=O)(=O)C(C)C)n1			< 6.00		6.85	6.47	< 6.00		6.11		
COc1cc(-n2cc(CN3CCCC3)nn2)ccc1Nc1ncc(Cl)c(Nc2ccccc2S(=O)(=O)C(C)C)n1			< 6.00		6.42	6.39	< 6.00		6.57		
CC(C)Oc1cc(-c2nc(CN3CCCC3)cs2)ccc1Nc1ncc(Cl)c(Nc2ccccc2S(=O)(=O)C(C)C)n1			< 6.00		6.72	6.46	< 6.00		< 6.00		
CC1CCN(Cc2csc(-c3ccc(Nc4ncc(Cl)c(Nc5ccccc5S(=O)(=O)C(C)C)n4)c(OC(C)C)c3)n2)CC1			< 6.00		6.62	6.55	< 6.00		< 6.00		
COc1cc(-n2cc(CN3CCC(C)CC3)nn2)ccc1Nc1ncc(Cl)c(Nc2ccccc2S(=O)(=O)C(C)C)n1		8.34	< 6.00	8.41	6.60	6.72	< 6.00		6.49	6.15	< 6.00
Cc1cc(Nc2ncc(Cl)c(Nc3ccccc3S(=O)(=O)C(C)C)n2)c(OC(C)C)cc1C1CCNCC1 [CERITINIB]			< 6.00			7.00	< 6.00				
COc1cc(-n2cc(CN3C[C@@H](C)N[C@@H](C)C3)nn2)ccc1Nc1ncc(Cl)c(Nc2ccccc2S(=O)(=O)C(C)C)n1		8.52	6.06	8.52	7.43	7.10	< 6.00		7.02	6.14	6.06
COc1cc(-n2cc(CN3CCN(C(C)=O)CC3)nn2)ccc1Nc1ncc(Cl)c(Nc2ccccc2S(=O)(=O)C(C)C)n1			< 6.00		6.55	6.51	< 6.00		6.46		
COc1cc(-c2nc(CN3CCCCC3)cs2)ccc1Nc1ncc(Cl)c(Nc2ccccc2S(=O)(=O)C(C)C)n1			< 6.00		7.00	6.74	< 6.00		6.37		
COc1cc(-n2cc(CN3CCNCC3)nn2)ccc1Nc1ncc(Cl)c(Nc2ccccc2S(=O)(=O)C(C)C)n1		8.10	< 6.00	8.37	7.46	7.06	< 6.00		7.09	< 6.00	6.05
CCN(CC)Cc1csc(-c2ccc(Nc3ncc(Cl)c(Nc4ccccc4S(=O)(=O)C(C)C)n3)c(OC(C)C)c2)n1			6.12		6.49	6.30	< 6.00		6.04		
COc1cc(-n2cc(CN3CCN(S(C)(=O)=O)CC3)nn2)ccc1Nc1ncc(Cl)c(Nc2ccccc2S(=O)(=O)C(C)C)n1			< 6.00		6.85	6.54	6.15		6.28		
COc1cc(-c2nc(CN3CCC[C@H]3CO)cs2)ccc1Nc1ncc(Cl)c(Nc2ccccc2S(=O)(=O)C(C)C)n1			< 6.00		6.80	6.64	< 6.00		6.33		
CC(C)Oc1cc(-c2nc(CN3CCN(C)CC3)cs2)ccc1Nc1ncc(Cl)c(Nc2ccccc2S(=O)(=O)C(C)C)n1		7.71	< 6.00	8.47	7.55	7.00	< 6.00		6.09	< 6.00	< 6.00
COc1cc(-n2cc(CN(C)C)nn2)ccc1Nc1ncc(Cl)c(Nc2ccccc2S(=O)(=O)C(C)C)n1			< 6.00		< 6.00	6.32	< 6.00		6.42		
CC(C)Oc1cc(-c2nc(CN3CCOCC3)cs2)ccc1Nc1ncc(Cl)c(Nc2ccccc2S(=O)(=O)C(C)C)n1			6.16		6.85	6.46	< 6.00		< 6.00		
COc1cc(-n2cc(CN3CCC[C@H]3CO)nn2)ccc1Nc1ncc(Cl)c(Nc2ccccc2S(=O)(=O)C(C)C)n1			< 6.00		6.49	6.42	6.04		6.28		
CC(C)Oc1cc(-c2nc(CN3CCC[C@H]3CO)cs2)ccc1Nc1ncc(Cl)c(Nc2ccccc2S(=O)(=O)C(C)C)n1			< 6.00		6.70	6.52	6.07		< 6.00		
CC(C)Oc1cc(-c2nc(CN3CCN(CCO)CC3)cs2)ccc1Nc1ncc(Cl)c(Nc2ccccc2S(=O)(=O)C(C)C)n1		7.87	< 6.00	8.40	7.66	7.05	< 6.00		6.24	< 6.00	< 6.00
COc1cc(-c2nc(CN3CCOCC3)cs2)ccc1Nc1ncc(Cl)c(Nc2ccccc2S(=O)(=O)C(C)C)n1			< 6.00		6.82	6.89	< 6.00		6.31		
COc1cc(-n2cc(CN3CCOCC3)nn2)ccc1Nc1ncc(Cl)c(Nc2ccccc2S(=O)(=O)C(C)C)n1			< 6.00		6.74	6.82	< 6.00		6.62		
COc1cc(-n2cc(CN3CCCCC3)nn2)ccc1Nc1ncc(Cl)c(Nc2ccccc2S(=O)(=O)C(C)C)n1			6.01		6.89	6.70	< 6.00		6.74		
CC(C)Oc1cc(-c2nc(CNC3CC3)cs2)ccc1Nc1ncc(Cl)c(Nc2ccccc2S(=O)(=O)C(C)C)n1			< 6.00		6.62	6.43	< 6.00		< 6.00		
CCN(CC)Cc1cn(-c2ccc(Nc3ncc(Cl)c(Nc4ccccc4S(=O)(=O)C(C)C)n3)c(OC)c2)nn1			< 6.00		6.30	< 6.00	< 6.00		< 6.00		
CC(C)Oc1cc(-c2nc(CNCCO)cs2)ccc1Nc1ncc(Cl)c(Nc2ccccc2S(=O)(=O)C(C)C)n1			< 6.00		6.72	6.46	< 6.00		< 6.00		
CC(C)Oc1cc(-c2nc(CN3CCCCC3)cs2)ccc1Nc1ncc(Cl)c(Nc2ccccc2S(=O)(=O)C(C)C)n1			< 6.00		6.92	6.64	< 6.00		< 6.00		
COc1cc(-n2cc(CNO)nn2)ccc1Nc1ncc(Cl)c(Nc2ccccc2S(=O)(=O)C(C)C)n1			< 6.00		6.09	< 6.00	< 6.00		< 6.00		
COc1cc(-c2nc(CNCCO)cs2)ccc1Nc1ncc(Cl)c(Nc2ccccc2S(=O)(=O)C(C)C)n1			< 6.00		6.64	6.52	< 6.00		6.48		
